“Also recorded” adds a separate entry of the source. Where two headings read alike, the source gives them in different places. Each block holds one molecule with its values, some of them ahead of it.
Legend:
[1] = target: T1, SERT (Rattus norvegicus, UniProt P31652); assay: Inhibition of [3H]citalopram binding to SERT; settings: for SERT binding/DAT binding: Table 3, selectivity ratio of IC50 values
T1 construct: rat striatum was the source for DAT, and cerebral cortex for SERT and NET; from tissue; host or cells: rat cerebral cortex
T1 sequence (P31652 whole entry): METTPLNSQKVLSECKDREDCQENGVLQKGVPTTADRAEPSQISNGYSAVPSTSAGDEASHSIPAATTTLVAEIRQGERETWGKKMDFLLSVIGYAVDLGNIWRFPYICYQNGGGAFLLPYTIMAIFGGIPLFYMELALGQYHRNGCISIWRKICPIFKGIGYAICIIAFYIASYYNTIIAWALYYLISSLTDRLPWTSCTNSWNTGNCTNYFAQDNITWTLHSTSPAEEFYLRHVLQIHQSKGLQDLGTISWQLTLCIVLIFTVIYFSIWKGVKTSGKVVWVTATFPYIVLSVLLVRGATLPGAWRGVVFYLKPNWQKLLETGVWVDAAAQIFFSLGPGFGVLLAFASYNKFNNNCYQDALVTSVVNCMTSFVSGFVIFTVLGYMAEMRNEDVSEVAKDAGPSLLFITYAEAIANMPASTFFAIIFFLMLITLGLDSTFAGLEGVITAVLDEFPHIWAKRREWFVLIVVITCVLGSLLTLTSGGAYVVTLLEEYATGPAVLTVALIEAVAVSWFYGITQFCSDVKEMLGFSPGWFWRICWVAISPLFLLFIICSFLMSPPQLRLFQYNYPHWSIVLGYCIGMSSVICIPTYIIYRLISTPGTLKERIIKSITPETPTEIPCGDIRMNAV
Protocol: (§1) Biology. […] Briefly, rat striatum was the source for DAT, and cerebral cortex for SERT and NET. […] Test compounds were dissolved in dimethyl sulfoxide (DMSO) and diluted out in 10% (v/v) DMSO. […] At least five triplicate concentrations of each test compound were studied, spaced evenly around the IC50 value. For DAT uptake assays, uptake of 50 nM [^3H]DA into rat striatal synaptosomes was measured exactly as described by us previously. Briefly, rat striatal P2 membrane fractions were incubated with test compounds for 8 min followed by the additional presence of [^3H]DA for 4 min at 25?. […] Construction of inhibition curves and dissolvement of test compounds were as described above.

[2] = target: T2, DAT (Rattus norvegicus, UniProt P23977); assay: Inhibition of [3H]WIN 35,428 binding to DAT
T2 construct: rat striatum was the source for DAT, and cerebral cortex for SERT and NET; from tissue; P2 synaptosomal fraction for uptake
T2 sequence (P23977 whole entry): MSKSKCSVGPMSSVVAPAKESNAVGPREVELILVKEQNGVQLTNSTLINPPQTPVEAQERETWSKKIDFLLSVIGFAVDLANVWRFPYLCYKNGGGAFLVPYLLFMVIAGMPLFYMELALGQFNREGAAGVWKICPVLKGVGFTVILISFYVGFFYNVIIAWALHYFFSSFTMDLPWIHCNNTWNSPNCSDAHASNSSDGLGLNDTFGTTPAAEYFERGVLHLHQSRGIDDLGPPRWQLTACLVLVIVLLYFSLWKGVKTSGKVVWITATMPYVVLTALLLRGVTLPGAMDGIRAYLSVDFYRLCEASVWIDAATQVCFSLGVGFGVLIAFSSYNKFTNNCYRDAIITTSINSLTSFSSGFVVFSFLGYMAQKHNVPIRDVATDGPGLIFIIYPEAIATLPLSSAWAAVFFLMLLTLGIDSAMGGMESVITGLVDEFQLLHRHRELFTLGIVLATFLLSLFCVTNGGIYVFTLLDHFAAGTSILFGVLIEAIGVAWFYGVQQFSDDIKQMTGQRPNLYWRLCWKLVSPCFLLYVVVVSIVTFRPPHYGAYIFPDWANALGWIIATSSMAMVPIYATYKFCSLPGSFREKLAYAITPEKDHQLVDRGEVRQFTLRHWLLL
Protocol: as §1

[3] = system: NET; assay: Inhibition of [3H]nisoxetine binding to NET; set-up: species or system rat; settings: Table 3; selectivity ratio of IC50 values
Protocol: as §1

[4] = target: NET (Rattus norvegicus, UniProt Q9WTR4); assay: Inhibition of [3H]nisoxetine binding to NET
Protocol: as §1

[5] = target: T2, DAT; assay: Inhibition of [3H]DA uptake by DAT into rat striatal synaptosomes; type: biochemical; settings: for [3H]DA uptake/DAT binding: Table 3, ratio of IC50 values
Protocol: as §1

[6] = target: T1, SERT; assay: SERT uptake inhibition, [3H]5-HT; type: biochemical; settings: for blockade of both SERT and NET (SNRI profile), in words: in vitro data
[7] = target: T3, NET (Rattus norvegicus); assay: NET uptake inhibition, [3H]NE; type: biochemical; settings: Table 4; rat brain
T3 construct: from tissue
T3 sequence (Q63380 1-617): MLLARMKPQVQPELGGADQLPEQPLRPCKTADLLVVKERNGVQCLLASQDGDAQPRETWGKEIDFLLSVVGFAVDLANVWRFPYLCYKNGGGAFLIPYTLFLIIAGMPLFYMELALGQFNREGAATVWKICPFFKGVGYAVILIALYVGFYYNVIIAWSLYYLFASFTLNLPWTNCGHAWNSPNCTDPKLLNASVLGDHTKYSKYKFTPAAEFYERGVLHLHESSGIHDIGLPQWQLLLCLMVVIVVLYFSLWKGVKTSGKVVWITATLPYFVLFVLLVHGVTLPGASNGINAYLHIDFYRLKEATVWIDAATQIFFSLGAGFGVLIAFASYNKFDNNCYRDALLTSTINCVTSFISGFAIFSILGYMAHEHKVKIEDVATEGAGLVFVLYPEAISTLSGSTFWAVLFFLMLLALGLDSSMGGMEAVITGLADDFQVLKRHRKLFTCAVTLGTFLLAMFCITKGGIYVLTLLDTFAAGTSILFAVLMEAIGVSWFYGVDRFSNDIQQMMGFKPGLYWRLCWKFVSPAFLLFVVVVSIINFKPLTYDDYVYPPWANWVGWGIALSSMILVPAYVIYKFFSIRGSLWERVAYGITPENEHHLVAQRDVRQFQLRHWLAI

[8] = Table 1, read-out: Inhibition of [3H]citalopram binding to SERT, IC50
[9] = Table 2, average ± SEM, read-out: SERT binding, IC50 [3H]citalopram
[10] = Table 1, rat striatum, read-out: Inhibition of [3H]Win 35,428 binding to DAT IC50
[11] = Table 2, average ± SEM of three to eight experiments, read-out: DAT binding, IC50, [3H]Win 35,428
[12] = Table 1, read-out: Inhibition of [3H]nisoxetine binding to NET, IC50
[13] = Table 2, average ± SEM, read-out: NET binding, IC50 [3H]nisoxetine
[14] = Table 2, average ± SEM, read-out: DAT uptake, IC50 [3H]DA
[15] = Table 4, rat brain, read-out: DAT binding, IC50, [3H]Win 35,428
[16] = Table 4, rat brain, read-out: SERT uptake, IC50 [3H]5-HT
[17] = Table 4, rat brain, read-out: DAT uptake, IC50 [3H]DA

- IC50 [1, 8]: 3310 nM
- IC50 [1, 9]: 3310 nM
- SERT binding/DAT binding [1]: 2.5
- activity at DAT, in words [2]: much weaker at DAT
- IC50 [2, 10]: 1300 nM
- IC50 [2, 11]: 1300 nM
- NET binding/DAT binding [3]: 3.9
- IC50 [4, 12]: 5100 nM
- IC50 [4, 13]: 5100 nM
SMILES: Fc1ccc(CN[C@H]2CCO[C@@H](C(c3ccccc3)c3ccccc3)C2)cc1 (relative stereo) [Compound 7a, cis-(2-benzhydryl-tetrahydropyran 4-yl)-(4-fluorobenzyl)-amine]

- IC50 [1, 8]: 4780 nM
- IC50 [1, 9]: 4780 nM
- SERT binding/DAT binding [1]: 3
- activity at DAT, in words [2]: much weaker at DAT
- IC50 [2, 10]: 1580 nM
- IC50 [2, 11]: 1580 nM
- NET binding/DAT binding [3]: 11.1
- IC50 [4, 12]: 17500 nM
- IC50 [4, 13]: 17500 nM
SMILES: Fc1ccc(CN[C@@H]2CCO[C@@H](C(c3ccccc3)c3ccccc3)C2)cc1 (relative stereo) [Compound 7b, trans-(2-benzhydryl-tetrahydropyran-4-yl)-(4-fluoro-benzyl)-amine]

SMILES: N#Cc1ccc(CN[C@H]2CC[C@@H](C(c3ccccc3)c3ccccc3)OC2)cc1 (relative stereo) [Compound 16c, Cis-(6-benzhydryl-tetrahydropyran-3-yl)-(4-cyano-benzyl)-amine]
- IC50 [1, 9]: 863 ± 52 nM
- IC50 [4, 13]: 1580 nM
- [3H]DA uptake/DAT binding [5]: 1.1

SMILES: Oc1ccc(CN[C@H]2CC[C@@H](C(c3ccccc3)c3ccccc3)OC2)cc1 (relative stereo) [Compound 16h, Cis-(6-benzhydryl-tetrahydropyran-3-yl)-(4-hydroxy-benzyl)-amine]
- IC50 [1, 9]: 398 ± 22 nM
- IC50 ([2]; read-out: IC50 at the DAT): 78.4 nM
- potency at NET, in words [4]: high potency for the NET

- IC50 [1, 9]: 780 ± 84 nM
- SERT binding/DAT binding [1]: 1.9
- IC50 [2, 11]: 400 ± 31 nM
- NET binding/DAT binding [3]: 0.36
- IC50 [4, 13]: 144 ± 25 nM
- IC50 [5, 14]: 880 ± 136 nM
SMILES: Clc1ccc(CN[C@H]2CC[C@@H](C(c3ccccc3)c3ccccc3)OC2)cc1Cl (relative stereo) [Compound 16i, Cis-(6-benzhydryl-tetrahydropyran-3-yl)-(3,4-dichloro-benzyl)-amine]

- IC50 [1, 9]: 3520 nM
- SERT binding/DAT binding [1]: 9.6
- IC50 [2, 11]: 368 ± 85 nM
- NET binding/DAT binding [3]: 1.9
- IC50 [4, 13]: 695 ± 142 nM
SMILES: Fc1ccc(CN[C@H]2CC[C@@H](C(c3ccccc3)c3ccccc3)OC2)cc1F (relative stereo) [Compound 16j, Cis-(6-benzhydryl-tetrahydropyran-3-yl)-(3,4-difluoro-benzyl)-amine]

- IC50 [1, 8]: 1580 ± 97 nM
- IC50 [1, 9]: 1580 ± 97 nM
- SERT binding/DAT binding [1]: 5.20
- IC50 [2, 10]: 303 ± 14 nM
- IC50 [2, 11]: 303 ± 14 nM
- NET binding/DAT binding [3]: 0.90
- IC50 [4, 12]: 274 ± 29 nM
- IC50 [4, 13]: 274 ± 29 nM
- IC50 ([5]; Table 1, read-out: Inhibition of [3H]DA uptake by DAT, IC50): 242 ± 39 nM
- IC50 [5, 14]: 242 ± 39 nM
- [3H]DA uptake/DAT binding [5]: 0.79
SMILES: c1ccc(CN[C@H]2CC[C@@H](C(c3ccccc3)c3ccccc3)OC2)cc1 (relative stereo) [Compound 16k, Cis-(6-benzhydryl-tetrahydropyran-3-yl)-benzyl-amine]

- IC50 [1, 9]: 2360 ± 92 nM
- SERT binding/DAT binding [1]: 11.69
- IC50 [2, 11]: 202 ± 13 nM
- NET binding/DAT binding [3]: 2.93
- IC50 [4, 13]: 592 ± 12 nM
- IC50 [5, 14]: 251 ± 14 nM
- [3H]DA uptake/DAT binding [5]: 1.24
SMILES: Brc1ccc(CN[C@H]2CC[C@@H](C(c3ccccc3)c3ccccc3)OC2)cc1 (relative stereo) [Compound 16l, Cis-(6-benzhydryl-tetrahydropyran-3-yl)-(4-bromo-benzyl)-amine]

- IC50 [1, 9]: 2480 ± 145 nM
- SERT binding/DAT binding [1]: 7.76
- IC50 [2, 11]: 319 ± 21 nM
- NET binding/DAT binding [3]: 0.73
- IC50 [4, 13]: 234 ± 17 nM
- IC50 [5, 14]: 500 ± 34 nM
- [3H]DA uptake/DAT binding [5]: 1.56
SMILES: Ic1ccc(CN[C@H]2CC[C@@H](C(c3ccccc3)c3ccccc3)OC2)cc1 (relative stereo) [Compound 16m, Cis-(6-benzhydryl-tetrahydropyran-3-yl)-(4-iodo-benzyl)-amine]

SMILES: c1ccc(C(c2ccccc2)[C@@H]2CC[C@H](NCc3ccc4[nH]ccc4c3)CO2)cc1 (relative stereo) [Compound 16n, Cis-(6-benzhydryl-tetrahydropyran-3-yl)-(1H-iodo-5-ylmethyl)-amine]
- IC50 [1, 9]: 325 ± 20 nM
- SERT binding/DAT binding [1]: 0.55
- IC50 ([2]; read-out: DAT binding, IC50, [3H]Win 35,428): 587 ± 66 nM
- NET binding/DAT binding [3]: 0.09
- potency at NET, in words [4]: high affinity; also recorded: strong selective potency at NET
- IC50 [4, 13]: 56 ± 6 nM

SMILES: Nc1ccc(CN[C@H]2CC[C@@H](C(c3ccccc3)c3ccccc3)OC2)cc1 (relative stereo) [Compound 16o, Cis-(6-benzhydryl-tetrahydropyran-3-yl)-(4-amino-benzyl)-amine]
- potency at NET, in words [4]: high potency at NET; also recorded: high potency for the NET
- [3H]DA uptake/DAT binding [5]: 1.02

- IC50 [1, 9]: 3950 nM
- SERT binding/DAT binding [1]: 30.6
- IC50 [2, 11]: 129 ± 58 nM
- NET binding/DAT binding [3]: 40.4
- IC50 [4, 13]: 5210 nM
SMILES: Fc1ccc(CCN[C@H]2CC[C@@H](C(c3ccccc3)c3ccccc3)OC2)cc1 (relative stereo) [Compound 16p, Cis-(6-benzhydryl-tetrahydropyran-3-yl)-[2-(4-fluoro-phenyl)-ethyl]-amine]

SMILES: O[C@H]1C[C@H](C(c2ccccc2)c2ccccc2)OC[C@@H]1NCc1ccc(F)cc1 [(+)-29b, (2R,4S,5S)-2-benzhydryl-5-(4-fluoro-benzylamino)-tetrahydro-pyran-4-ol]
- IC50 [2]: 1030 ± 120 nM
- IC50 [6]: 5560 ± 640 nM
- IC50 [5]: 440 ± 30 nM
- IC50 [7]: 1130 ± 580 nM

SMILES: O[C@H]1C[C@H](C(c2ccccc2)c2ccccc2)OC[C@@H]1NCCc1ccc(F)cc1 [(+)-29c, (2R,4S,5S)-2-benzhydryl-5-[2-(4-fluoro-phenyl)-ethylamino]-tetrahydropyran-4-ol]
- IC50 [2, 15]: 443 ± 52 nM
- IC50 [6, 16]: 2950 ± 380 nM
- IC50 [5, 17]: 218 ± 20 nM
- IC50 [7]: 77.3 ± 3 nM

SMILES: O[C@H]1C[C@H](C(c2ccccc2)c2ccccc2)OC[C@@H]1NCc1ccccc1 [(+)-29d, (2R,4S,5S)-2-benzhydryl-5-benzylamino-tetrahydro-pyran-4-ol]
- IC50 [2, 15]: 596 ± 84 nM
- IC50 [6, 16]: 6120 ± 730 nM
- IC50 [5, 17]: 341 ± 43 nM

- IC50 [2, 15]: 141 ± 2.2 nM
- IC50 [6, 16]: 209 ± 25 nM
- IC50 [5, 17]: 90.7 ± 4 nM
SMILES: Oc1ccc(CN[C@@H]2CC[C@H](C(c3ccccc3)c3ccccc3)OC2)cc1 [(+)-37a, cis-(3R,6R)-(6-benzhydryl-tetrahydropyran-3-yl)-(4-hydroxy-benzyl)-amine]

SMILES: O[C@@H]1C[C@@H](C(c2ccccc2)c2ccccc2)OC[C@H]1NCc1ccccc1 [(−)-29d, (2S,4R,5R)-2-benzhydryl-5-benzylamino-tetrahydro-pyran 4-ol]
- IC50 [6, 16]: 862 ± 36 nM
- IC50 [5, 17]: 600 ± 79 nM

SMILES: O[C@@H]1C[C@@H](C(c2ccccc2)c2ccccc2)OC[C@H]1NCc1ccc2[nH]ccc2c1 [(−)-32b, (2S,4R,5R)-2-benzhydryl-5-[(1H-indol-5-ylmethyl)-amino]-tetrahydropyran-4-ol]
- IC50 [2, 15]: 705 ± 176 nM
- blockade of both SERT and NET (SNRI profile), in words ([6]; Table 4): potent blockers for both SERT and NET
- blockade of both SERT and NET (SNRI profile), in words ([6]; Table 4, listed as (−)32b): dual transport blockers
- IC50 [5, 17]: 162 ± 11 nM

SMILES: Oc1ccc(CN[C@H]2CC[C@@H](C(c3ccccc3)c3ccccc3)OC2)cc1 [(−)-37a, cis-(3S,6S)-(6-benzhydryl-tetrahydropyran-3-yl)-(4-hydroxy-benzyl)-amine]
- IC50 [2, 15]: 280 ± 8 nM
- IC50 [6, 16]: 42 ± 3 nM
- blockade of both SERT and NET (SNRI profile), in words ([6]; Table 4): potent blockers for both SERT and NET
- blockade of both SERT and NET (SNRI profile), in words ([6]; Table 4, listed as (−)37a): dual transport blockers
- IC50 [5, 17]: 114 ± 8 nM

SMILES: c1ccc(CN[C@H]2CC[C@@H](C(c3ccccc3)c3ccccc3)NC2)cc1 [Compound 1a, reference compound]
- IC50 ([4]; read-out: Inhibition of [3H]nisoxetine binding to NET, IC50): 612 ± 130 nM

- IC50 [1, 9]: 2590 nM
- SERT binding/DAT binding [1]: 3.3
- IC50 ([2]; read-out: IC50 at the DAT): 794 nM
- NET binding/DAT binding [3]: 2.3
- IC50 ([4]; read-out: IC50 for the NET): 1860 nM
SMILES: c1ccc(C(c2ccccc2)C2CCC(NCc3c[nH]c4ccccc34)CO2)cc1 (stereo not drawn) [Compound 16f, Cis-(6-benzhydryl-tetrahydropyran-3-yl)-(3-indole-methyl)-amine]

- IC50 [1, 9]: 1640 nM
- SERT binding/DAT binding [1]: 7.2
- fold more active at DAT compared to the 3-substituted 16f [2]: 3.5 fold
- IC50 ([2]; read-out: IC50 at the DAT): 227 nM
- NET binding/DAT binding [3]: 1.8
- IC50 ([4]; read-out: IC50 for the NET): 401 nM
- IC50 [5, 14]: 135 ± 47.5 nM
- [3H]DA uptake/DAT binding [5]: 0.60
SMILES: c1ccc(C(c2ccccc2)C2CCC(NCc3cc4ccccc4[nH]3)CO2)cc1 (stereo not drawn) [Compound 16g, Cis-(6-benzhydryl-tetrahydropyran-3-yl)-(2-indole-methyl)-amine]

Reference: patent publication US8017791B2, “Tri-substituted 2-benzhydryl-5-benzylamino-tetrahydro-pyran-4-ol and 6-benzhydryl-4-benzylamino-tetrahydro-pyran-3-ol analogues, and novel, 3,6-disubstituted pyran derivatives” (Wayne State University, priority 2003, dated 2011)
